In paper PMC6270991, “Design and Synthesis of Thiazolo[5,4-f]quinazolines as DYRK1A Inhibitors, Part I” (Molecules, 2014):
Where two headings read alike, the source gives them in different places.

Columns and labels:
[1] = biological target: DYRK1A (Rattus norvegicus, UniProt Q63470); assay: DYRK1A in vitro kinase assay (33P-ATP, Woodtide substrate); format: biochemical
Protocol: (§1) Buffer A: MgCl2 (10 mM), 1 mM ethylene glycol-bis(2-aminoethylether)-N,N,N',N'-tetraacetic acid (EGTA), 1 mM dithiothreitol (DTT), 25 mM Tris-HCl pH 7.5, 50 μg heparin/mL.
(§2) Controls were performed with appropriate dilutions of dimethylsulfoxide (DMSO). IC50 values were calculated from dose-response curves established by Sigma-Plots. The GSK-3, CK1, DYRK1A and CLK1 peptide substrates were obtained from Proteogenix (Oberhausbergen, France).
(§3) CDK5/p25. (Human, recombinant) was prepared as previously described. […] ATP (3000 Ci/mmol; 10 mCi/mL) in a final volume of 30 μL. After 30 min incubation at 30 °C, 25 μL aliquots of supernatant were spotted onto sheets of Whatman P81 phosphocellulose paper, and 20 s later, the filters were washed eight times (for at least 5 min each time) in a solution of 10 mL phosphoric acid/L of water. The wet filters were counted in the presence of 1 mL ACS (Amersham) scintillation fluid.

[2] = biological target: T1, CDK5/p25 (Homo sapiens, UniProt Q00535); assay: CDK5/p25 in vitro kinase assay (33P-ATP, histone H1); format: biochemical; conditions: read-out: CDK5 IC50
T1 construct: made in house
Protocol: as §1, §2, §3

[3] = biological target: GSK-3α/β; assay: GSK-3α/β in vitro kinase assay (33P-ATP, GS-1 peptide); format: biochemical, Porcine; conditions: 15 μM ATP, 30 min at 30 °C, triplicate; <50% inhibition at 10 µM reported as >10; read-out: GSK3 IC50
Protocol: as §1, §2, §3
GSK-3α/β. (Porcine brain, native) was assayed as described for CDK5/p25, but in buffer A and using a GSK-3 specific substrate (GS-1: […]pSEDEEE) (pS stands for phosphorylated serine).

[4] = biological target: CK1δ/ε; assay: CK1δ/ε in vitro kinase assay (33P-ATP, CK1-specific peptide substrate); format: biochemical, Porcine; conditions: 15 μM ATP, 30 min at 30 °C, triplicate; <50% inhibition at 10 µM reported as >10
Protocol: as §2, §3
CK1δ/ε. (Porcine brain, native) was assayed as described for CDK5/p25, but using the CK1-specific peptide substrate […]pSAYSITA [23].

[5] = 15 μM ATP, 30 min at 30 °C, triplicate, <50% inhibition at 10 µM reported as >10

T1 sequence (Q00535 whole entry): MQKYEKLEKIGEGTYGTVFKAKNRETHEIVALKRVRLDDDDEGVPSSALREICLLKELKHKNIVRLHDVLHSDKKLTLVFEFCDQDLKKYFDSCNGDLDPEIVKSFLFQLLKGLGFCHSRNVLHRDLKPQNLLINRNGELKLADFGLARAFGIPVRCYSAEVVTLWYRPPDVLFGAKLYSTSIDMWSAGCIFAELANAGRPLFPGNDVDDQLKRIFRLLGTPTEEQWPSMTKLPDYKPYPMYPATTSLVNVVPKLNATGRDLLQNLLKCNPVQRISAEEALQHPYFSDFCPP
T1 sequence (Q15078 99-307 partner limits assumed): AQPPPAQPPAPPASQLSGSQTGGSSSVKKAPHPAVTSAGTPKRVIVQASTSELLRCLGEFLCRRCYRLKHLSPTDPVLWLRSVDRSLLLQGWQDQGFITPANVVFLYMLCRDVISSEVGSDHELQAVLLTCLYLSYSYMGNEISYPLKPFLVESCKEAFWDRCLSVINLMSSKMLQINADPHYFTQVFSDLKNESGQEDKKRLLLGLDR

Structure (SMILES)	IC50 [1]	IC50 [2]	IC50 [3]	IC50 [4]	melting point	IC50 [1, 5]	IC50 [2, 5]
COc1ccc(Nc2ncnc3ccc4nc(C#N)sc4c23)cc1 [Compound 7, 9-(4-Methoxyphenylamino)thiazolo[5,4-f]quinazoline-2-carbonitrile]	> 10 µM	> 10 µM	> 10 µM	> 10 µM	> 260 °C	–	–
N#Cc1nc2ccc3ncnc(Nc4ccc5c(c4)OCO5)c3c2s1 [Compound 8, 9-(Benzo[d][1,3]dioxol-5-ylamino)thiazolo[5,4-f]quinazoline-2-carbonitrile]	> 10 µM	> 10 µM	> 10 µM	> 10 µM	> 260 °C	–	–
N=C(NCCN1CCCCC1)c1nc2ccc3ncnc(Nc4ccc5c(c4)OCO5)c3c2s1 [Compound 8b, 9-(Benzo[d][1,3]dioxol-5-ylamino)-N-(2-(piperidin-1-yl)ethyl)thiazolo[5,4-f]quinazoline-2-carboximi-damide]	–	–	1.1 µM	> 10 µM	–	2 µM	> 10 µM
N=C(NCCN1CCCC1)c1nc2ccc3ncnc(Nc4ccc5c(c4)OCO5)c3c2s1 [Compound 8c, 9-(Benzo[d][1,3]dioxol-5-ylamino)-N-(2-(pyrrolidin-1-yl)ethyl)thiazolo[5,4-f]quinazoline-2-carboxi-midamide]	–	–	0.36 µM	> 10 µM	–	1.1 µM	> 10 µM
CN(C)CCNC(=N)c1nc2ccc3ncnc(Nc4ccc5c(c4)OCO5)c3c2s1 [Compound 8d, 9-(Benzo[d][1,3]dioxol-5-ylamino)-N-(2-(dimethylamino)ethyl)thiazolo[5,4-f]quinazoline-2-carboxi-midamide]	–	–	0.25 µM	> 10 µM	–	1.05 µM	> 10 µM
CCN(CC)CCNC(=N)c1nc2ccc3ncnc(Nc4ccc5c(c4)OCO5)c3c2s1 [Compound 8e, 9-(Benzo[d][1,3]dioxol-5-ylamino)-N-(2-(diethylamino)ethyl)thiazolo[5,4-f]quinazoline-2-carboxi-midamide]	–	–	0.8 µM	> 10 µM	–	6.5 µM	> 10 µM
N=C(NCc1ccccc1)c1nc2ccc3ncnc(Nc4ccc5c(c4)OCO5)c3c2s1 [Compound 8f, 9-(Benzo[d][1,3]dioxol-5-ylamino)-N-benzylthiazolo[5,4-f]quinazoline-2-carboximidamide]	> 10 µM	> 10 µM	2 µM	> 10 µM	–	–	–
NC(=O)c1nc2ccc3ncnc(Nc4ccc5c(c4)OCO5)c3c2s1 [Compound 8h, 9-(Benzo[d][1,3]dioxol-5-ylamino)thiazolo[5,4-f]quinazoline-2-carboxamide]	0.8 µM	> 10 µM	0.77 µM	> 10 µM	–	–	–
COC(=N)c1nc2ccc3ncnc(Nc4ccc5c(c4)OCO5)c3c2s1 [Compound 8i, Methyl 9-(benzo[d][1,3]dioxol-5-ylamino)thiazolo[5,4-f]quinazoline-2-carbimidate]	0.047 µM	> 10 µM	0.66 µM	> 10 µM	–	–	–
N#Cc1nc2ccc3ncnc(Nc4ccc(Br)cc4F)c3c2s1 [Compound 9, 9-(4-Bromo-2-fluorophenylamino)thiazolo[5,4-f]quinazoline-2-carbonitrile]	> 10 µM	> 10 µM	> 10 µM	> 10 µM	> 260 °C	–	–
N=C(NCCN1CCOCC1)c1nc2ccc3ncnc(Nc4ccc(Br)cc4F)c3c2s1 [Compound 9a, 9-(4-Bromo-2-fluorophenylamino)-N-(2-morpholinoethyl)thiazolo[5,4-f]quinazoline-2-carboximid-amide]	–	–	1.8 µM	> 10 µM	–	> 10 µM	> 10 µM
N=C(NCCN1CCCCC1)c1nc2ccc3ncnc(Nc4ccc(Br)cc4F)c3c2s1 [Compound 9b, 9-(4-Bromo-2-fluorophenylamino)-N-(2-(piperidin-1-yl)ethyl)thiazolo[5,4-f]quinazoline-2-carboxi-midamide]	–	–	0.53 µM	> 10 µM	–	> 10 µM	> 10 µM
N=C(NCCN1CCCC1)c1nc2ccc3ncnc(Nc4ccc(Br)cc4F)c3c2s1 [Compound 9c, 9-(4-Bromo-2-fluorophenylamino)-N-(2-(pyrrolidin-1-yl)ethyl)thiazolo[5,4-f]quinazoline-2-carboxi-midamide]	–	–	2.2 µM	> 10 µM	–	> 10 µM	> 10 µM
CCN(CC)CCNC(=N)c1nc2ccc3ncnc(Nc4ccc(Br)cc4F)c3c2s1 [Compound 9e, 9-(4-Bromo-2-fluorophenylamino)-N-(2-(diethylamino)ethyl)thiazolo[5,4-f]quinazoline-2-carboxi-midamide]	–	–	2.1 µM	> 10 µM	–	> 10 µM	> 10 µM
N=C(NCc1ccccc1)c1nc2ccc3ncnc(Nc4ccc(Br)cc4F)c3c2s1 [Compound 9f, N-Benzyl-9-(4-bromo-2-fluorophenylamino)thiazolo[5,4-f]quinazoline-2-carboximidamide]	> 10 µM	> 10 µM	1.8 µM	> 10 µM	–	–	–
CN(C)C(=N)c1nc2ccc3ncnc(Nc4ccc(Br)cc4F)c3c2s1 [Compound 9g]	–	–	0.6 µM	> 10 µM	–	0.27 µM	> 10 µM
NC(=O)c1nc2ccc3ncnc(Nc4ccc(Br)cc4F)c3c2s1 [Compound 9h, 9-(4-Bromo-2-fluorophenylamino)thiazolo[5,4-f]quinazoline-2-carboxamide]	0.67 µM	> 10 µM	0.13 µM	> 10 µM	–	–	–
N#Cc1nc2ccc3ncnc(Nc4ccc(F)c(Cl)c4)c3c2s1 [Compound 10, 9-(3-Chloro-4-fluorophenylamino)thiazolo[5,4-f]quinazoline-2-carbonitrile]	> 10 µM	> 10 µM	> 10 µM	> 10 µM	252 °C	–	–
N=C(NCCN1CCCCC1)c1nc2ccc3ncnc(Nc4ccc(F)c(Cl)c4)c3c2s1 [Compound 10b, 9-(3-Chloro-4-fluorophenylamino)-N-(2-(piperidin-1-yl)ethyl)thiazolo[5,4-f]quinazoline-2-carboxi-midamide]	–	–	1.4 µM	> 10 µM	–	> 10 µM	> 10 µM
N=C(NCCN1CCCC1)c1nc2ccc3ncnc(Nc4ccc(F)c(Cl)c4)c3c2s1 [Compound 10c, 9-(3-Chloro-4-fluorophenylamino)-N-(2-(pyrrolidin-1-yl)ethyl)thiazolo[5,4-f]quinazoline-2-carboxi-midamide]	–	–	2.5 µM	> 10 µM	–	> 10 µM	> 10 µM
CN(C)CCNC(=N)c1nc2ccc3ncnc(Nc4ccc(F)c(Cl)c4)c3c2s1 [Compound 10d, 9-(3-Chloro-4-fluorophenylamino)-N-(2-(dimethylamino)ethyl)thiazolo[5,4-f]quinazoline-2-carboxi-midamide]	–	–	3 µM	> 10 µM	–	> 10 µM	> 10 µM
CCN(CC)CCNC(=N)c1nc2ccc3ncnc(Nc4ccc(F)c(Cl)c4)c3c2s1 [Compound 10e, 9-(3-Chloro-4-fluorophenylamino)-N-(2-(diethylamino)ethyl)thiazolo[5,4-f]quinazoline-2-carboxi-midamide]	–	–	7 µM	> 10 µM	–	> 10 µM	> 10 µM

Further lines, with some results ahead:

IC50 [1]	IC50 [2]	IC50 [3]	IC50 [4]	melting point	Structure (SMILES)	IC50 [1, 5]	IC50 [2, 5]
–	–	3.5 µM	> 10 µM	–	N=C(NCCN1CCOCC1)c1nc2ccc3ncnc(Nc4ccc(F)c(Cl)c4)c3c2s1 [Compound 10a, 9-(3-Chloro-4-fluorophenylamino)-N-(2-morpholinoethyl)thiazolo[5,4-f]quinazoline-2-carboximid-amide]	> 10 µM	> 10 µM
> 10 µM	> 10 µM	> 10 µM	> 10 µM	–	N=C(NCc1ccccc1)c1nc2ccc3ncnc(Nc4ccc(F)c(Cl)c4)c3c2s1 [Compound 10f, N-Benzyl-9-(3-chloro-4-fluorophenylamino)thiazolo[5,4-f]quinazoline-2-carboximidamide]	–	–
6.5 µM	> 10 µM	7.2 µM	> 10 µM	–	CN(C)C(=N)c1nc2ccc3ncnc(Nc4ccc(F)c(Cl)c4)c3c2s1 [Compound 10g, 9-(3-Chloro-4-fluorophenylamino)-N,N-dimethylthiazolo[5,4-f]quinazoline-2-carboximidamide]	–	–
